We go through 2 compounds from US7517867B2, “Topoisomerase-targeting agents” (Rutgers, The State University of New Jersey, priority 2002, dated 2009).

Consider `COc1cc2c(cc1OC)C(CO)Cc1c-2cnc2cc3c(cc12)OCO3` (centres unmarked) [Compound 208], for which the melting point – broadly, the temperature, or range, at which the solid turns liquid – lay in the range of 231 to 233 °C.

`COc1cc2c(cc1OC)C(CC#N)Cc1c-2cnc2cc3c(cc12)OCO3` (centres unmarked) [Compound 209] gave a melting point of 212 to 214 °C.
